This is an account of results in PMC11589458, “Development of bombesin-tubulysin conjugates using multicomponent chemistry to functionalize both the payload and the homing peptide” (Frontiers in Pharmacology, 2024).

Series [1] relates to HCT-116 (colon cancer) cells. The series can be described thus: Resazurin cell viability / anti-proliferation assay, HCT-116. The format is cell-based, human. Conditions: for fold higher IC50 in GRPR-lower expressing HCT-116 than in higher GRPR-expressing cancer cells: compared with T-47D (20) or T-47D and PC-3 (21); for IC50: HCT-116. As for the experimental part:
(§1) [formula] Scheme 1 (A) Solid-phase synthesis of tubugi analogs functionalized with a thiol group at the internal amide N-substituent. WR = Wang resin. (B) Evaluation of the anti-proliferative activity: tubugi effects on cell viability, as determined by a resazurin assay for human prostate cancer PC-3 cells and human colon cancer HCT-116 cells treated for 48 h with tubugi 10a (red dots and line) and tubugi 10b (blue triangles and line). For control and data normalization, cells were routinely treated in parallel with 0.5% (v/v) DMSO (negative control), and as a positive cytotoxicity control with 100 µM digitonin (for data normalization set to 0% cell viability), both in standard growth medium.
(§2) The actual GRPR expression levels of these cell lines were checked by conducting RT-qPCR, as described in the SI. […] The cell viability and proliferation assays were carried out by using a resazurin-based fluorometric assay. The cells were exposed to the bombesin conjugates 20, 21, and 22 for initial 6 h and 48 h, and regardless of the initial incubation time, the cells were then allowed to grow until 72 h in sum were finalized, after which the cell viability was determined (see the SI).
(§3) FIGURE 2 (A) Relative human GRPR (mRNA) expression levels in the cell lines used for the flow cytometry and cell viability studies, as detected by using RT-qPCR (n = 3). Data were analyzed by conducting the ΔΔCt methodology using GAPDH as a reference gene and normalized to the GRPR expression level of non-cancerous MCF-10A breast cells as a “healthy” cell reference (set to 1.0). Statistical significance was tested by using an unpaired t-test (*p < 0.05). (B–D) Cell viability of human cancer (T-47D, PC-3, MDA-MB-231, and HCT-116) and non-cancer (MCF-10A) cell lines after 6 h initial treatment with the bombesin-tubugi conjugates 20 (normal disulfide), 21 (hindered disulfide), and 22 (hindered disulfide and lipidated), medium exchange and subsequent cell cultivation until finalization of 72 h, and subsequent measurement by using fluorometric resazurin assay read-out. For control and data normalization, cells were routinely treated in parallel with 0.5% (v/v) DMSO (negative control), and as a positive cytotoxicity control with 100 µM digitonin (for data normalization set to 0% cell viability), both in standard growth medium. Each data point was determined with 3-4 biological replicates, each with technical triplicates. The indicated concentrations are IC50 values as calculated based on the non-linear regression dose-response curves as drawn by using GraphPad Prism 8 software. Error bars indicate the 95% confidence interval. TEXT PRINTED IN THE PICTURE: (B) 20: T-47D (HR+ breast cancer) 594.2 nM (95% CI: 475.2 - n.d. nM); PC-3 (prostate cancer) 695.3 nM (95% CI: 595.6 - n.d. nM); MDA-MB-231 (TNBC) 626.8 nM (95% CI: 430.4 - n.d. nM); HCT-116 (colon cancer) 1,315 nM (95% CI: n.d. - 6,114 nM); MCF-10A (healthy breast) ~ 3,200 nM (95% CI: n.d.) | (C) 21: T-47D (HR+ breast cancer) 740.9 nM (95% CI: 598.2 - 950.1 nM); PC-3 (prostate cancer) 716.4 nM (95% CI: 529.4 - 997.2 nM); MDA-MB-231 (TNBC) 357.0 nM (95% CI: n.d. - 606.4 nM); HCT-116 (colon cancer) ~ 2,000 nM (95% CI: n.d.); MCF-10A (healthy breast) ~ 4,000 nM (95% CI: n.d.) | (D) 22: T-47D (HR+ breast cancer) 70.9 nM (95% CI: 39.3 - 122.4 nM); PC-3 (prostate cancer) 110.7 nM (95% CI: 66.4 - 116.8 nM); MDA-MB-231 (TNBC) 87.8 nM (95% CI: 83.3 - 148.4 nM)

Series [2] relates to MCF-10A (non-cancer, healthy breast epithelium) cells. The series can be described thus: Resazurin cell viability assay, MCF-10A. It counts as cell-based, human. Conditions: for fold higher IC50 in GRPR-lowest expressing healthy MCF-10A than in higher GRPR-expressing cancer cells: compared with T-47D (20) or T-47D and PC-3 (21); for IC50: MCF-10A. As for the experimental part:
as §2, §3

Series [3] has as its system MDA-MB-231 (TNBC) cells. It counts as cell-based, human. The note with it: 6 h. As for the experimental part:
as §2
(§4) FIGURE 2 (A) Relative human GRPR (mRNA) expression levels in the cell lines used for the flow cytometry and cell viability studies, as detected by using RT-qPCR (n = 3). Data were analyzed by conducting the ΔΔCt methodology using GAPDH as a reference gene and normalized to the GRPR expression level of non-cancerous MCF-10A breast cells as a “healthy” cell reference (set to 1.0). Statistical significance was tested by using an unpaired t-test (*p < 0.05). (B–D) Cell viability of human cancer (T-47D, PC-3, MDA-MB-231, and HCT-116) and non-cancer (MCF-10A) cell lines after 6 h initial treatment with the bombesin-tubugi conjugates 20 (normal disulfide), 21 (hindered disulfide), and 22 (hindered disulfide and lipidated), medium exchange and subsequent cell cultivation until finalization of 72 h, and subsequent measurement by using fluorometric resazurin assay read-out. For control and data normalization, cells were routinely treated in parallel with 0.5% (v/v) DMSO (negative control), and as a positive cytotoxicity control with 100 µM digitonin (for data normalization set to 0% cell viability), both in standard growth medium. Each data point was determined with 3-4 biological replicates, each with technical triplicates. The indicated concentrations are IC50 values as calculated based on the non-linear regression dose-response curves as drawn by using GraphPad Prism 8 software. Error bars indicate the 95% confidence interval. TEXT PRINTED IN THE PICTURE: (B) 20: T-47D (HR+ breast cancer) 594.2 nM (95% CI: 475.2 - n.d. nM); PC-3 (prostate cancer) 695.3 nM (95% CI: 595.6 - n.d. nM); MDA-MB-231 (TNBC) 626.8 nM (95% CI: 430.4 - n.d. nM); HCT-116 (colon cancer) 1,315 nM (95% CI: n.d. - 6,114 nM); MCF-10A (healthy breast) ~ 3,200 nM (95% CI: n.d.) | (C) 21: T-47D (HR+ breast cancer) 740.9 nM (95% CI: 598.2 - 950.1 nM); PC-3 (prostate cancer) 716.4 nM (95% CI: 529.4 - 997.2 nM); MDA-MB-231 (TNBC) 357.0 nM (95% CI: n.d. - 606.4 nM); HCT-116 (colon cancer) ~ 2,000 nM (95% CI: n.d.); MCF-10A (healthy breast) ~ 4,000 nM (95% CI: n.d.) | (D) 22: T-47D (HR+ breast cancer) 70.9 nM (95% CI: 39.3 - 122.4 nM); PC-3 (prostate cancer) 110.7 nM (95% CI: 66.4 - 116.8 nM); MDA-MB-231 (TNBC) 87.8 nM (95% CI: 83.3 - 148.4 nM) […]
(§5) Figure S50. Cell viability of human cancer (T-47D, PC-3, MDA-MB-231) and non-cancer (184B5) cell lines after 6 h initial treatment with the bombesin-tubugi conjugate 22 and its non-conjugated tubugi payload 10b, medium exchange and subsequent cell cultivation until finalization of 72 h, and subsequent measurement by using fluorometric resazurin assay read-out. Each data point was determined in at least 3-4 biological replicates each with technical triplicates. The indicated concentrations are IC50 values as calculated based on the non-linear regression dose-response curves as drawn by using GraphPad Prism 8 software. Error bars indicate the 95% confidence interval.
(§6) (1 picture or pasted object on this page, not shown here)

Series [4] relates to T-47D (HR+ breast cancer) cells. It counts as cell-based, human. Conditions: 6 h. As for the experimental part: as §2, §4, §5, §6
Series [5] deals with PC-3 (prostate cancer) cells. It counts as cell-based, human. Conditions: 6 h. As for the experimental part: as §1, §2
FIGURE 2 (A) Relative human GRPR (mRNA) expression levels in the cell lines used for the flow cytometry and cell viability studies, as detected by using RT-qPCR (n = 3). Data were analyzed by conducting the ΔΔCt methodology using GAPDH as a reference gene and normalized to the GRPR expression level of non-cancerous MCF-10A breast cells as a “healthy” cell reference (set to 1.0). […] (B–D) Cell viability of human cancer (T-47D, PC-3, MDA-MB-231, and HCT-116) and non-cancer (MCF-10A) cell lines after 6 h initial treatment with the bombesin-tubugi conjugates 20 (normal disulfide), 21 (hindered disulfide), and 22 (hindered disulfide and lipidated), medium exchange and subsequent cell cultivation until finalization of 72 h, and subsequent measurement by using fluorometric resazurin assay read-out. […] Each data point was determined with 3-4 biological replicates, each with technical triplicates. […]

Series [6] concerns T-47D, PC-3 and MDA-MB-231 cells. Put plainly: Resazurin cell viability assay, the three GRPR-overexpressing cancer cell lines taken together. It counts as cell-based, human. The note with it: 6 h initial treatment.
Test in series [7]: as above
It counts as cell-based, human. Conditions: 6 h initial treatment; read-out: selectivity: fold higher cytotoxicity for GRPR-overexpressing cells than for healthy 184B5 cells.

Series [8] concerns 184B5 (healthy breast) cells. The note with it: 6 h.
Setting [9] is: 6 h initial treatment, medium exchange, cultivation until 72 h, fluorometric resazurin read-out, 3-4 biological replicates, technical triplicates, read-out: IC50.
[10] abbreviates: 6 h initial treatment, read-out: IC50.

Like-named read-outs stand apart in the source and are kept apart here. Peptide text beside a SMILES is read from it. * marks the point of attachment. X1 = CCCO[C@H](C[C@H](C(C)C)N(CC(=O)NCCC(C)(C)SSCCC(=O)*)C(=O)[C@@H](NC(=O)[C@H]1CCCCN1C)[C@@H](C)CC)c1nc(C(=O)N[C@@H](Cc2ccccc2)C[C@H](C)C(=O)O)cs1; X2 = CCCO[C@H](C[C@H](C(C)C)N(CC(=O)NCCSSCCC(=O)*)C(=O)[C@@H](NC(=O)[C@H]1CCCCN1C)[C@@H](C)CC)c1nc(C(=O)N[C@@H](Cc2ccccc2)C[C@H](C)C(=O)O)cs1

For the compound `CCCO[C@H](C[C@H](C(C)C)N(CC(=O)NCCC(C)(C)SSCCC(=O)NCCCC[C@H](N)C(=O)N[C@@H](CC(N)=O)C(=O)N[C@@H](CCC(N)=O)C(=O)N[C@@H](Cc1c[nH]c2ccccc12)C(=O)N[C@@H](C)C(=O)N[C@H](C(=O)NCC(=O)N[C@@H](Cc1c[nH]cn1)C(=O)N[C@@H](CC(C)C)C(=O)N[C@@H](CCSC)C(N)=O)C(C)C)C(=O)[C@@H](NC(=O)[C@H]1CCCCN1C)[C@@H](C)CC)c1nc(C(=O)N[C@@H](Cc2ccccc2)C[C@H](C)C(=O)O)cs1` [compound 21] (H-K(X1)NQWAVGHLM-NH2), the “fold higher IC50 in GRPR-lower expressing HCT-116 than in higher GRPR-expressing cancer cells” value in series [1] (6 h initial treatment) is recorded as “approximately 2.5 fold”. In addition, the IC50 in series [1] (setting [9]) is roughly 2000 nM; in series [1] (48 h initial treatment), “nanomolar range”; in series [2] (setting [9]), roughly 4000 nM; in series [2] (48 h initial treatment), “nanomolar range”; in series [3], 357 nM; in series [4] it was 741 nM. In series [5], this compound came in with an IC50 of 716 nM. For the same compound, the “fold higher IC50 in GRPR-lowest expressing healthy MCF-10A than in higher GRPR-expressing cancer cells” value in series [2] (6 h initial treatment) is reported as roughly 5.5 fold.

For `CCCCCCCCCCCCCCNC(=O)CN(CCCC[C@H](N)C(=O)N[C@@H](CC(N)=O)C(=O)N[C@@H](CCC(N)=O)C(=O)N[C@@H](Cc1c[nH]c2ccccc12)C(=O)N[C@@H](C)C(=O)N[C@H](C(=O)NCC(=O)N[C@@H](Cc1c[nH]cn1)C(=O)N[C@@H](CC(C)C)C(=O)N[C@@H](CCSC)C(N)=O)C(C)C)C(=O)CCSSC(C)(C)CCNC(=O)CN(C(=O)[C@@H](NC(=O)[C@H]1CCCCN1C)[C@@H](C)CC)[C@H](C[C@@H](OCCC)c1nc(C(=O)N[C@@H](Cc2ccccc2)C[C@H](C)C(=O)O)cs1)C(C)C` [compound 22], the IC50 is 70 to 110 nM in series [6] (T-47D, PC-3, MDA-MB-231, read-out: IC50 (range over cell lines)); 87.8 nM in series [3]; 70.9 nM in series [4]; 392 nM in series [8]; 111 nM in series [5]. Besides, the “fold more potent than the non-lipidated conjugates 20 and 21” value in series [6] (three cancer cells overexpressing the GRPR) is given as 4- to 10 fold. The selectivity ratio in series [7] is 3.5 to 5.5.

`CCCO[C@H](C[C@H](C(C)C)N(CC(=O)NCCSSCCC(=O)NCCCC[C@H](N)C(=O)N[C@@H](CC(N)=O)C(=O)N[C@@H](CCC(N)=O)C(=O)N[C@@H](Cc1c[nH]c2ccccc12)C(=O)N[C@@H](C)C(=O)N[C@H](C(=O)NCC(=O)N[C@@H](Cc1c[nH]cn1)C(=O)N[C@@H](CC(C)C)C(=O)N[C@@H](CCSC)C(N)=O)C(C)C)C(=O)[C@@H](NC(=O)[C@H]1CCCCN1C)[C@@H](C)CC)c1nc(C(=O)N[C@@H](Cc2ccccc2)C[C@H](C)C(=O)O)cs1` [compound 20] (H-K(X2)NQWAVGHLM-NH2): the “fold higher IC50 in GRPR-lower expressing HCT-116 than in higher GRPR-expressing cancer cells” value in series [1] (6 h initial treatment) is on record as “approximately 2 fold”. Also, the IC50 in series [1] (setting [9]) is 1320 nM; in series [1] (setting [10]) it was roughly 1300 nM; in series [1] (48 h initial treatment), “nanomolar range”; in series [2] (setting [10]) it was roughly 3200 nM; in series [2] (48 h initial treatment) it was “nanomolar range”; in series [3], 627 nM. The same compound returned an IC50 in series [5] of 695 nM. The “fold higher IC50 in GRPR-lowest expressing healthy MCF-10A than in higher GRPR-expressing cancer cells” value in series [2] (6 h initial treatment) is roughly 5.5 fold.
